Assay results: patent US10918653B2, “Bovine milk oligosaccharides” (The Regents of the University of California, priority 2010, dated 2021)

Tests used:
[1] = test system: Vibrio cholerae; type: cell-based; settings: sugar in MacConkey medium; BMO 2 g per 100 ml; strains 10, 11
[2] = test system: E. coli O157:H7; type: cell-based; settings: sugar in MacConkey medium; BMO 2 g per 100 ml; strain 3
[3] = test system: Listeria monocytognes; test: Growth on MacConkey agar plates (lactose or BMO); type: cell-based, Listeria monocytogenes; settings: sugar in MacConkey medium; BMO 2 g per 100 ml; strain 8
Method: (§1) FIGS. 3A-3B illustrate growth of select pathogens on BMO. […] The Lac operon permease can transport BMO trimers and tetramers. […] BMOs were suspended at 1 gr/10 mL of sterile water, 10 N NaOH was added until the pH was 7. The BMO solution was used in a MacConkey medium to generate agar plates.

[4] = test system: Salmonella typhimurium+lac operon; test: Growth on MacConkey agar plates (lactose or BMO); type: cell-based; settings: sugar in MacConkey medium; BMO 2 g per 100 ml; strain 5
Method: as §1

[5] = test system: Yersinia enterocolitica; test: Growth on MacConkey agar plates (lactose or BMO); type: cell-based; settings: sugar in MacConkey medium; BMO 2 g per 100 ml; strain 9
Method: as §1

[6] = test system: E. coli K12 (DH5alpha, lac minus); test: Growth on MacConkey agar plates (lactose or BMO); type: cell-based; settings: sugar in MacConkey medium; BMO 2 g per 100 ml; strain 2
Method: as §1

[7] = test system: E. coli K12; test: Growth on MacConkey agar plates (lactose or BMO); type: cell-based; settings: sugar in MacConkey medium; BMO 2 g per 100 ml; strain 1
Method: as §1

[8] = test system: Salmonella typhimurium; type: cell-based, Salmonella enterica seovar Typhimurium; settings: sugar in MacConkey medium; BMO 2 g per 100 ml; strains 4, 6, 7

Compound: OC[C@H]1O[C@@H](O[C@H]2[C@H](O)[C@@H](O)C(O)O[C@@H]2CO)[C@H](O)[C@@H](O)[C@H]1O (some centres unmarked) [Lactose]
- growth on MacConkey agar plate [1]: negative
- growth on MacConkey agar plate (red strikes) [2]: growth observed
- growth on MacConkey agar plate [3]: negative
- growth on MacConkey agar plate (red strikes) [4]: growth observed
- growth on MacConkey agar plate [5]: negative
- growth on MacConkey agar plate [6]: negative
- growth on MacConkey agar plate (red strikes) [7]: growth observed
- growth on MacConkey agar plate [8]: negative
